Reference: US20100249125A1, “INHIBITION OF PROSTGLANDIN E2 RECEPTORS FOR THE TREATMENT OF ENDOMETRIOSIS” (THE TEXAS A&M UNIVERSITY SYSTEM, priority 2009, published 2010)
“Also recorded” adds a separate entry of the source. Like-named read-outs stand apart in the source and are kept apart here.

Assays:
[1] = tested on: human endometriotic epithelial cells 12Z; assay: Cell proliferation assay (Coulter counter); assay type: cell-based; settings: 12Z cells; 0-200 concentration series
Experimental: (§1) EP2/EP4 small interfering RNA (siRNA): 12Z and 22B cells (3.0×10^5/well) were cultured in antibiotic-free DMEM/F12 with 10% FBS in six-well tissue culture plates. At 70-80% confluency, cells were used for EP2, EP4 or EP2/EP4 knock-down experiments using SMART-pool siRNA duplex delivered by DharmaFect-1 as described previously (11) and per manufacturer's instructions (Dharmacon Inc, Lafayette, Colo.). As an internal control, MOCK siRNA was used. According to the manufacturer's instructions, SMARTpool siRNA were consisted of at least four individual siRNA duplexes targeted against a specific gene and designed using a bioinformatics technology known as SMARTselection. […] The inventors used SMARTpool siRNA in order to use more than one siRNA duplex from different regions of the gene of interest to avoid non-specific indirect effects of single siRNA duplex to a single region of the target gene. Briefly, siRNA duplexes (100 nM/well) and DharmaFect-1 (3 μl/well) were diluted in 50 μl antibiotic and serum-free DMEM/F12 medium separately and mixed gently and incubated for 5 min at room temperature. Afterwards, EP2, EP4 or EP2/EP4 siRNA and DharmaFect-1 were mixed (total volume 100 μl) and incubated at room temperature for 20 min. Then, 100 μl siRNA: DharmaFect-1 complex was diluted with 2 ml antibiotic-free media with 10% FBS and added to the well. After 24 h, the medium was replaced with fresh DMEM/F12 with 10% FBS and incubated for 24 h. Fluorescence labeled siGLO RISC-free siRNA was transfected separately and transfection efficiency was estimated using a fluorescence microscope. Transfection efficiency more than 80% was considered as optimal conditions for further experiments. Efficiency of siRNA on silencing of EP2 and EP4 genes and proteins was assessed by RT-PCR and western blot, respectively 72 h post-transfection knock-down efficiency was 70-80% in both 12Z and 22B cells.
(§2) Cell Proliferation Assay: The 12Z and 22B cells (1×10^5/well) were cultured in DMEM/F12 with 10% FBS in six-well plates. At 70%-80% confluency the cells were cultured in DMEM/F12 with 2% dextran charcoal-treated FBS and treated with inhibitors for EP1 (SC19220; […]), EP2 (AH6809; […]), EP4 (AH23848; […]), or a combination of EP2 (AH6809; […]) and EP4 (AH23848; […]) for 36 hours. The concentrations for each inhibitor was determined by dose-response studies using […] and an optimal concentration was selected based on its effects on proliferation of human endometriotic cells (FIGS. 6A-6B). These inhibitors competitively bind with respective receptors and inhibit their functions (40-42). For the siRNA study, 24 hours after transfection of siRNA the medium was replaced and the cells were cultured in 2% dextran charcoal-treated FBS, which was considered as time 0 hour, and cell proliferation was estimated at 36 hours. The number of cells was counted using a Coulter counter (11) and considered as 100% present in control. Data were expressed as mean±SEM of three independent studies conducted in duplicate.

[2] = tested on: human endometriotic stromal cells 22B; assay: Cell proliferation assay (Coulter counter); assay type: cell-based; settings: 22B cells; 0-200 concentration series
Experimental: as §1, §2

[3] = tested on: human endometriotic epithelial cells 12Z; assay: Cell viability assay (WST-1); assay type: cell-based; settings: 12Z cells; AH6809 75 μM, AH23848 50 μM, alone or combined; vs control
Experimental: (§3) Cell Viability Assay: The 12Z and 22B cells (1.25×10^4 cells/well) were cultured in DMEM/F12 with 10% FBS in 96-well plates and treated as described previously. At the end of the experiments the cell viability (metabolic activity) was determined using a cell proliferation assay kit WST-1 according to the manufacturer's (Roche Applied Sciences) instructions. Metabolic activity recorded in control cells was considered as 100%. Data were expressed as mean±SEM of three independent experiments conducted in triplicate.

[4] = tested on: human endometriotic stromal cells 22B; assay: Cell viability assay (WST-1); assay type: cell-based; settings: 22B cells; AH6809 75 μM, AH23848 50 μM, alone or combined; vs control
Experimental: as §3

[5] = tested on: human endometriotic epithelial cells 12Z; assay: TUNEL apoptosis assay (flow cytometry, fluorescence microscopy); assay type: cell-based; settings: 12Z cells, 24 h; for Induced apoptosis (TUNEL, flow cytometry): AH6809 75 μM, AH23848 50 μM, alone or combined
Experimental: (§4) These well-characterized 12Z and 22B cells were cultured in DMEM/F12 without special steroid treatment containing 10% fetal bovine serum (FBS) and penicillin (100 U/ml), streptomycin (100 μg/ml) and amphotericin-B 2.5 μg/ml in a humidified 5% CO2 and 95% air at 37° C. as we described previously (11, 39). At 70-80% confluency the cells were cultured in DMEM/F12 with 2% dextran-charcoal-treated fetal bovine serum (DC-FBS) and treated with EP inhibitors (EP-I) for EP1 (SC19220-100 100 μM), EP2 (AH6809-75 μM) and/or EP4 (AH23848-50 μM) for 24 h.
as §1
(§5) Terminal deoxynucleotide transferase dUTP nick end labeling (TUNEL) assay: Non-adherent and adherent cells were harvested, mixed together, and resuspended at the concentrations of 1×10^6 cells/ml. Nicks in the DNA were determined by terminal deoxynucleotidyl transferase (TdT) and 5-bromo-2′-deoxyuridine 5′-triphosphate (BrdUTP) labeling using APO-BrdU TUNEL Assay Kit. Detection of BrdU incorporation at DNA break sites was achieved through Alexa Fluor 488 dye-labeled anti-BrdU antibody. The staining procedures were performed as recommended by manufacturers. Numbers of apoptotic cells were analyzed by a flowcytometer (FACSCaliber, Becton Dickinson, San Jose, Calif.) using Cell Quest software. In addition, the presence of TUNEL labeled DNA fragments were determined by fluorescence microscopy. Digital images were captured using a Zeiss Axioplan 2 Research Microscope with an Axiocam HR digital camera.

[6] = tested on: human endometriotic stromal cells 22B; assay: as above; assay type: cell-based; settings: 22B cells, 24 h; for Induced apoptosis (TUNEL, flow cytometry): AH6809 75 μM, AH23848 50 μM, alone or combined
Experimental: as §4, §1, §5

[7] = Cell viability assay (WST-1); assay type: cell-based, human; settings: human, AH6809 75 μM, AH23848 50 μM, alone or combined, vs control, read-out: Decrease of cell viability
Experimental: as §3

[8] = tested on: human immortalized endometriotic epithelial cells 12Z and stromal cells 22B; settings: associated with decreased PGE2 production; cited from earlier work
[9] = tested on: endometriotic implant; settings: hamster model; through caspase-3 dependent apoptosis; cited from earlier work
[10] = tested on: estrogen receptor; settings: treatment of endometriosis in women; cited from earlier work
[11] = tested on: COX-2 along with p450 aromatase; settings: 3.75 mg, for 1 month; eutopic endometria; cited from earlier work
[12] = tested on: endometriotic lesions; settings: nude mice model; cited from earlier work
[13] = 25 mg/d for 6 months, women with endometriosis; cited from earlier work

## O=C(O)CC/C=C\CC[C@H]1[C@H](N2CCOCC2)C(=O)C[C@H]1OCc1ccc(-c2ccccc2)cc1 (relative stereo) [AH23848, (4Z)-7-[(rel-1S,2S,5R)-5-((1,1′-Biphenyl-4-yl)methoxy)-2-(4-morpholinyl)-3-oxocyclopentyl]-4-heptenoic acid]
[1]
  Proliferation, dose response experiment: decreased (P<0.05) proliferation
[2]
  Proliferation, dose response experiment: decreased (P<0.05) proliferation
[3]
  Decrease of cell viability: ~55%
[4]
  Decrease of cell viability: ~45%
[5]
  Induced apoptosis (TUNEL, flow cytometry): ~55%
[6]
  Induced apoptosis (TUNEL, flow cytometry): ~45%

## CC(C)Oc1ccc2c(=O)c3cc(C(=O)O)ccc3oc2c1 [AH6809, 6-Isopropoxy-9-oxoxanthene-2-carboxylic acid]
[1]
  Proliferation, dose response experiment: decreased (P<0.05) proliferation
[2]
  Proliferation, dose response experiment: decreased (P<0.05) proliferation
[7]; 12Z endometriotic epithelial cells, 12Z cells
  cytotoxicity at 75 μM: ~55%
[7]; 22B endometriotic stromal cells, 22B cells
  cytotoxicity at 75 μM: ~45%
[5]
  Induced apoptosis (TUNEL, flow cytometry): ~55%
[6]
  Induced apoptosis (TUNEL, flow cytometry): ~45%

## CS(=O)(=O)Nc1ccc([N+](=O)[O-])cc1OC1CCCCC1 [NS-398]
[8]
  Survival, migration and invasion: prevents survival, migration, and invasion; also recorded: prevents survival, migration and invasion
[9]
  Regression of endometriotic implant: induced regression of endometriotic implant

## CC(=O)NNC(=O)N1Cc2ccccc2Oc2ccc(Cl)cc21 [SC19220]
[1]
  Proliferation, dose response experiment: did not decrease proliferation
[2]
  Proliferation, dose response experiment: did not decrease proliferation
[5]; SC19220 100 μM
  Induction of apoptosis (TUNEL): did not induce apoptosis
[6]; SC19220 100 μM
  Induction of apoptosis (TUNEL): did not induce apoptosis

## C[C@]12CC[C@@H]3c4ccc(O)cc4C[C@@H](CCCCCCCCC[S+]([O-])CCCC(F)(F)C(F)(F)F)[C@H]3[C@@H]1CC[C@@H]2O (some centres unmarked) [fulvestrant]
[10]
  Outcome of clinical trial: discontinued due to unfavorable outcomes

## CCNC(=O)[C@@H]1CCCN1C(=O)[C@H](CCCNC(=N)N)NC(=O)[C@H](CC(C)C)NC(=O)[C@@H](CC(C)C)NC(=O)[C@H](Cc1ccc(O)cc1)NC(=O)[C@H](CO)NC(=O)[C@H](Cc1c[nH]c2ccccc12)NC(=O)[C@H](Cc1c[nH]cn1)NC(=O)[C@@H]1CCC(=O)N1 [leuprolide acetate]
[11]
  Expression of COX-2 and p450 aromatase: decreased expression of COX-2 along with p450 aromatase

## CS(=O)(=O)Nc1ccc([N+](=O)[O-])cc1Oc1ccccc1 [nimesulide]
[12]
  Number and size of endometriotic lesions: failed to decrease number and size of endometriotic lesions

## O=C(c1ccc(OCCN2CCCCC2)cc1)c1c(-c2ccc(O)cc2)sc2cc(O)ccc12 [raloxifene]
[10]
  Outcome of clinical trial: discontinued due to unfavorable outcomes

## CS(=O)(=O)c1ccc(C2=C(c3ccccc3)C(=O)OC2)cc1 [rofecoxib]
[13]
  Pelvic pain symptoms: effectively suppressed the pelvic pain symptoms
